From PubChem BioAssay AID224 (DTP/NCI, 2004)
“And” between values parts separate entries of the source, which are not always exact repeats. Equal values may be shown once. Inconclusive results and toxic doses are left out. Starred links: 1 amine or outer side, 2 acyl side, 3 side chain; linkers in the order of their positions; H or OH if unused. Positions of bridges follow the written chain, without caps; N, C: chain ends. Non-standard residues stand in square brackets, D forms with d. Residues, ends and D or L forms follow the SMILES beside them. Chains are numbered I, II in the order given. Actinocin(9to1) = Cc1c2oc3c(C)ccc(C(=O)[*:1])c3nc-2c(C(=O)[*:2])c(N)c1=O; aThr = C[C@H](O)[C@H](N)C(=O)O; NMeV = CN[C@H](C(=O)O)C(C)C; Sar = CNCC(=O)O

Tested on: P335 leukemia ip, BDF1 mice, survival T/C %
Assay: NCI In Vivo Anticancer Drug Screen. Data for tumor model P335 Leukemia (intraperitoneal) in B6D2F1 (BDF1) mice
Conditions: endpoint: mean survival time, higher = longer survival
Experimental: The antitumor activity of compounds was measured in mice bearing transplantable tumors. Survival or tumor size were measured and the results are expressed as the measurement made in the treated group (T) divided by the measurement made in the vehicle treated control group (C). The tumor model used in this assay is P335 Leukemia (intraperitoneal) in B6D2F1 (BDF1) mice

[1] = dose: 25.0 mg/kg/injection, schedule: Q01DX Z (ip), vehicle: water
[2] = dose: 50.0 mg/kg/injection, schedule: Q01DX Z (ip), vehicle: water
[3] = dose: 4.0 mg/kg/injection, schedule: Q01DX Z (ip), vehicle: carboxymethylcellulose (CMC)
[4] = dose: 8.0 mg/kg/injection, schedule: Q01DX Z (ip), vehicle: carboxymethylcellulose (CMC)
[5] = dose: 16.0 mg/kg/injection, schedule: Q01DX Z (ip), vehicle: carboxymethylcellulose (CMC)
[6] = dose: 50.0 mg/kg/injection, schedule: Q01DX Z (ip), vehicle: carboxymethylcellulose (CMC)
[7] = dose: 100.0 mg/kg/injection, schedule: Q01DX Z (ip), vehicle: carboxymethylcellulose (CMC)
[8] = dose: 1.6 mg/kg/injection, schedule: Q01DX Z (ip), vehicle: carboxymethylcellulose (CMC)
[9] = dose: 3.1 mg/kg/injection, schedule: Q01DX Z (ip), vehicle: carboxymethylcellulose (CMC)
[10] = dose: 6.25 mg/kg/injection, schedule: Q01DX Z (ip), vehicle: carboxymethylcellulose (CMC)
[11] = dose: 12.5 mg/kg/injection, schedule: Q01DX Z (ip), vehicle: water
[12] = dose: 12.5 mg/kg/injection, schedule: Q01DX Z (ip), vehicle: carboxymethylcellulose (CMC)
[13] = dose: 25.0 mg/kg/injection, schedule: Q01DX Z (ip), vehicle: carboxymethylcellulose (CMC)

In the case of `COS(C)(=O)=O`, the T/C [1] was 87 % of control, the T/C [2] was 101 % of control and the T/C (dose: 100.0 mg/kg/injection, schedule: Q01DX Z (ip), vehicle: water) was 101 % of control.
In the case of `COc1ccc(/C=N/NC(N)=S)cc1`, the T/C (dose: 18.75 mg/kg/injection, schedule: Q01DX Z (ip), vehicle: carboxymethylcellulose (CMC)) was 115 % of control, the T/C (dose: 37.5 mg/kg/injection, schedule: Q01DX Z (ip), vehicle: carboxymethylcellulose (CMC)) was 108 % of control and the T/C (dose: 75.0 mg/kg/injection, schedule: Q01DX Z (ip), vehicle: carboxymethylcellulose (CMC)) was 106 % of control. The T/C (dose: 150.0 mg/kg/injection, schedule: Q01DX Z (ip), vehicle: carboxymethylcellulose (CMC)) was 96 % of control, the T/C (dose: 300.0 mg/kg/injection, schedule: Q01DX Z (ip), vehicle: carboxymethylcellulose (CMC)) was 115 % of control and the T/C (dose: 300.0 mg/kg/injection, schedule: Q01DX Z (ip), vehicle: saline) was 94 % of control. The T/C (dose: 600.0 mg/kg/injection, schedule: Q01DX Z (ip), vehicle: saline) was 96 % of control.
`O=C(Nc1ccc(C2=NCCCN2)cc1)c1ccc(NC(=O)c2ccc(C3=NCCCN3)cc2)cc1` was tested, and the T/C [3] was 168 % of control, the T/C [4] was 176 % of control and the T/C [5] was 108 % of control.
`N#CCSc1ncnc2nc[nH]c12` was tested, and the T/C [6] was 93 % of control, the T/C [7] was 93 % of control and the T/C (dose: 200.0 mg/kg/injection, schedule: Q01DX Z (ip), vehicle: methylcellulose (MC)) was 91 % of control.
For `CN(C)c1ccc(/C=C/c2ccnc3ccccc23)cc1`, the T/C [8] was 94 % of control, the T/C [9] was 89 % of control and the T/C (dose: 6.2 mg/kg/injection, schedule: Q01DX Z (ip), vehicle: water) was 100 % of control. For the same compound, the T/C [10] was 90 % of control and 105 % of control, the T/C [11] was 95 % of control and the T/C [1] was 92 % of control. The T/C [6] was 118 % of control.
In the case of `CN(Cc1cnc2nc(N)nc(N)c2n1)c1ccc(C(=O)N[C@@H](CCC(=O)O)C(=O)O)cc1`, the T/C (dose: 0.31 mg/kg/injection, schedule: Q01DX Z (ip), vehicle: other) was 110 % of control and the T/C (dose: 3.0 mg/kg/injection, schedule: Q01DX Z (ip), vehicle: other) was 88 % of control.
In the case of `CCOC(=O)NP(=O)(N1CC1(C)C)N1CC1(C)C` (stereo not drawn), the T/C [3] was 101 % of control, the T/C [4] was 106 % of control and the T/C [5] was 114 % of control. The T/C (dose: 31.25 mg/kg/injection, schedule: Q01DX Z (ip), vehicle: carboxymethylcellulose (CMC)) was 101 % of control, the T/C (dose: 125.0 mg/kg/injection, schedule: Q01DX Z (ip), vehicle: carboxymethylcellulose (CMC)) was 88 % of control and the T/C (dose: 250.0 mg/kg/injection, schedule: Q01DX Z (ip), vehicle: carboxymethylcellulose (CMC)) was 93 % of control.
`C[C@@H]1C[C@@H]([C@H](O)CC2CC(=O)NC(=O)C2)C(=O)[C@@H](C)C1` was tested, and the T/C (dose: 0.78 mg/kg/injection, schedule: Q01DX Z (ip), vehicle: water) was 113 % of control, the T/C (dose: 1.56 mg/kg/injection, schedule: Q01DX Z (ip), vehicle: water) was 106 % of control and 112 % of control and the T/C (dose: 3.12 mg/kg/injection, schedule: Q01DX Z (ip), vehicle: water) was 89 % of control. For the same compound, the T/C (dose: 6.25 mg/kg/injection, schedule: Q01DX Z (ip), vehicle: water) was 100 % of control, the T/C [11] was 106 % of control and the T/C [1] was 100 % of control. For the same compound, the T/C [2] was 111 % of control.
For `Oc1cc(CN(CCCl)CCCl)c(O)cc1CN(CCCl)CCCl`, the T/C (dose: 0.24 mg/kg/injection, schedule: Q01DX Z (sc), vehicle: steriod suspending solution) was 95 % of control, the T/C (dose: 0.47 mg/kg/injection, schedule: Q01DX Z (sc), vehicle: steriod suspending solution) was 109 % of control and the T/C (dose: 0.94 mg/kg/injection, schedule: Q01DX Z (sc), vehicle: steriod suspending solution) was 103 % of control. For the same compound, the T/C (dose: 1.87 mg/kg/injection, schedule: Q01DX Z (sc), vehicle: steriod suspending solution) was 104 % of control and the T/C (dose: 7.5 mg/kg/injection, schedule: Q01DX Z (sc), vehicle: steriod suspending solution) was 87 % of control.
For `Clc1ccc(C(c2ccccc2Cl)C(Cl)Cl)cc1` (stereo not drawn), the T/C (dose: 12.5 mg/kg/injection, schedule: Q01DX Z (sc), vehicle: steriod suspending solution) was 96 % of control, the T/C (dose: 25.0 mg/kg/injection, schedule: Q01DX Z (sc), vehicle: steriod suspending solution) was 96 % of control and the T/C (dose: 50.0 mg/kg/injection, schedule: Q01DX Z (sc), vehicle: steriod suspending solution) was 97 % of control. For the same compound, the T/C (dose: 100.0 mg/kg/injection, schedule: Q01DX Z (sc), vehicle: steriod suspending solution) was 92 % of control.
With `Nc1ncnc2c1ccn2C1OC(CO)C(O)C1O` (stereo not drawn) the T/C (dose: 0.08 mg/kg/injection, schedule: Q01DX Z (ip), vehicle: carboxymethylcellulose (CMC)) was 110 % of control, the T/C (dose: 0.16 mg/kg/injection, schedule: Q01DX Z (ip), vehicle: carboxymethylcellulose (CMC)) was 97 % of control and the T/C (dose: 0.31 mg/kg/injection, schedule: Q01DX Z (ip), vehicle: carboxymethylcellulose (CMC)) was 95 % of control. The T/C (dose: 0.32 mg/kg/injection, schedule: Q01DX Z (ip), vehicle: carboxymethylcellulose (CMC)) was 121 % of control and the T/C (dose: 1.25 mg/kg/injection, schedule: Q01DX Z (ip), vehicle: carboxymethylcellulose (CMC)) was 93 % of control.
In the case of `O=C(O)CCCc1ccc(N(CCCl)CCCl)cc1`, the T/C [10] was 89 % of control and the T/C [12] was 89 % of control.
In the case of `C[n+]1c2ccccc2nc2c(N)cc(N)cc21`, the T/C [8] was 94 % of control, the T/C [9] was 86 % of control and the T/C (dose: 6.2 mg/kg/injection, schedule: Q01DX Z (ip), vehicle: carboxymethylcellulose (CMC)) was 97 % of control. The T/C [10] was 124 % of control, the T/C [12] was 100 % of control and 114 % of control and the T/C [13] was 120 % of control.
In the case of `O=c1[nH]c(=O)n(C2CC(O)C(CO)O2)cc1F` (stereo not drawn), the T/C [13] was 111 % of control, the T/C [6] was 104 % of control and the T/C [7] was 111 % of control. For the same compound, the T/C (dose: 200.0 mg/kg/injection, schedule: Q01DX Z (ip), vehicle: carboxymethylcellulose (CMC)) was 114 % of control, the T/C (dose: 400.0 mg/kg/injection, schedule: Q01DX Z (ip), vehicle: carboxymethylcellulose (CMC)) was 87 % of control and the T/C (dose: 800.0 mg/kg/injection, schedule: Q01DX Z (ip), vehicle: carboxymethylcellulose (CMC)) was 86 % of control.
With `OCC1OC(n2cnc3c(Cl)ncnc32)C(O)C1O` (stereo not drawn) the T/C (dose: 7.8 mg/kg/injection, schedule: Q01DX Z (ip), vehicle: carboxymethylcellulose (CMC)) was 101 % of control and the T/C (dose: 15.6 mg/kg/injection, schedule: Q01DX Z (ip), vehicle: carboxymethylcellulose (CMC)) was 105 % of control.
With `O=C(Nc1ccc(C2=NCCN2)cc1)c1ccc(C(=O)Nc2ccc(C3=NCCN3)cc2)c(Cl)c1` the T/C (dose: 3.75 mg/kg/injection, schedule: Q01DX Z (ip), vehicle: water) was 92 % of control, the T/C (dose: 7.5 mg/kg/injection, schedule: Q01DX Z (ip), vehicle: water) was 120 % of control and the T/C (dose: 15.0 mg/kg/injection, schedule: Q01DX Z (ip), vehicle: water) was 157 % of control. The T/C (dose: 30.0 mg/kg/injection, schedule: Q01DX Z (ip), vehicle: water) was 156 % of control and 206 % of control and the T/C (dose: 60.0 mg/kg/injection, schedule: Q01DX Z (ip), vehicle: water) was 86 % of control.
With `Cc1c2oc3c(C)ccc(C(=O)N[C@@H]4C(=O)N[C@H](C(C)C)C(=O)N5CCC[C@H]5C(=O)N(C)CC(=O)N(C)[C@@H](C(C)C)C(=O)O[C@H]4C)c3nc-2c(C(=O)N[C@@H]2C(=O)N[C@H](C(C)C)C(=O)N3CCC[C@H]3C(=O)N(C)CC(=O)N(C)[C@@H](C(C)C)C(=O)O[C@H]2C)c(N)c1=O` (I: [aThr][dV]P[Sar][NMeV] / II: [aThr][dV]P[Sar][NMeV]; ester I:1-I:C, II:1-II:C; linker I:N-II:N via Actinocin(9to1)) the T/C (dose: 0.8 micrograms/kg/injection, schedule: Q01DX Z (ip), vehicle: saline) was 106 % of control, the T/C (dose: 1.6 micrograms/kg/injection, schedule: Q01DX Z (ip), vehicle: saline) was 106 % of control and the T/C (dose: 2.5 micrograms/kg/injection, schedule: Q01DX Z (ip), vehicle: saline) was 96 % of control. For the same compound, the T/C (dose: 4.9 micrograms/kg/injection, schedule: Q01DX Z (ip), vehicle: saline) was 102 % of control, the T/C (dose: 6.4 micrograms/kg/injection, schedule: Q01DX Z (ip), vehicle: saline) was 120 % of control and the T/C (dose: 9.8 micrograms/kg/injection, schedule: Q01DX Z (ip), vehicle: saline) was 98 % of control. For the same compound, the T/C (dose: 19.5 micrograms/kg/injection, schedule: Q01DX Z (ip), vehicle: saline) was 88 % of control, the T/C (dose: 38.9 micrograms/kg/injection, schedule: Q01DX Z (ip), vehicle: saline) was 122 % of control and the T/C (dose: 51.2 micrograms/kg/injection, schedule: Q01DX Z (ip), vehicle: saline) was 115 % of control. The T/C (dose: 102.4 micrograms/kg/injection, schedule: Q01DX Z (ip), vehicle: saline) was 103 % of control.
